The values that follow come from PMC7822819, “Discovery of a new class of integrin antibodies for fibrosis” (Scientific Reports, 2021).

Data set [1] deals with bleomycin-induced lung fibrosis. Nature of the data set: Bleomycin-induced lung fibrosis mouse model. Type of data set: in vivo. The following applies: BLM mice, Nintedanib 60 mpk po qd. As for the experimental part: Adult male C57BL/6 mice (Taconic, Rensselaer, NY) were housed in a temperature and humidity-controlled facility with a 12 h light: 12-h dark cycle. Animals had ad libitum access to food (Purina Rodent Chow 5053, LabDiet, St. Louis, MO) and water. All procedures utilizing experimental animals were conducted in accordance with the Guide for the Care and Use of Laboratory Animals, and experimental procedures were reviewed and approved by the Institutional Animal Care and Use Committee at MRL, Kenilworth, NJ. For osmotic minipump implantation, TFA salt of MK-0429 was formulated in 50% DMSO/50% H2O at a concentration of 416 mg/mL. MK-0429 or vehicle solution were filled in minipumps (Alzet, # 1007D, flow rate 0.5 μL/h). Minipumps were placed in mice subcutaneously in a pocket on the back between the shoulder blades. A small incision was made and a subcutaneous pocket formed by blunt dissection. A sterile minipump was inserted into the subcutaneous pocket. The incision was closed with staples or non-absorbable suture or absorbable (subcuticular) suture. The minipumps were used for continuous drug delivery for 2 weeks. Mice at 12 ~ 13 weeks of age were randomized to 5 groups: saline, bleomycin instillation with vehicle (osmotic minipump), bleomycin instillation with MK-0429 treatment, bleomycin instillation with vehicle oral treatment, and bleomycin instillation with Nintedanib treatment. All mice were anaesthetized with isoflurane. Bleomycin was dosed by intra-tracheal (i.t) instillation in a volume of 50 µl, at a dose of 1unit /kg body weight. After instillation, mice were kept in a heads-up position for 2–5 min before putting into cages. MK-0429 (200 mg/kg) was administered by Osmotic pump from day 5 to day 14 and Nintedanib (60 mg/kg) was administered, p.o., q.d., for 14 days. Vehicle was dosed orally at 10 am daily from the day 5 to the end of the studies and dosing volume was 10 mL/kg. For plasma PK analysis, an aliquot of 50 μL plasma was spiked into a 96-well plate, and 200 μL of acetonitrile containing internal standard were added for protein precipitation. The mixture was vortexed, centrifuged at 4000 rpm for 20 min. 50 μL of supernatant were mixed with 200 μl H2O and the final solution were injected for LC–MS/MS analysis. The methods for quantitative analysis were developed on UPLC (Waters) chromatographic system equipped with an API4000 QTrap mass spectrometer (Applied Biosystems, Concord, Ontario, Canada). Analyst 1.5 software packages (Applied Biosystems) were used to control the LC–MS/MS system and data acquisition and processing. Upon completion of the study, animals were euthanized and tissues were collected for histological assessment. Lung tissues were perfused with 10% formalin, fixed for 24 h, and then paraffin embedded. Tissue sections were stained with hematoxylin & eosin (H&E) and Masson’s trichrome, subsequently evaluated under light microscope. The severity of histopathologic changes and fibrosis in the lung were graded as described previously by pathologists[51],[52]. Following deparaffinization and rehydration, each lung tissue section was processed to identify αSMA deposition by immunohistochemistry. The primary antibodies used were αSMA antibody from Sigma. The Aperio ScanScope XT Slide Scanner (Aperio Technologies) system was used to capture whole slide digital images with a 20 × objective. Digital images were managed using Aperio Spectrum. The positive stains were identified and quantified using a macro created from a color deconvolution algorithm (Aperio Technologies). Statistical analysis was performed by using One-way ANOVA followed by Tukey’s test.

The test system of the next data set is CHOK1 parental cells. The data set can be described thus: Cell adhesion assay (Epic) on fibronectin. The conditions noted are these: in words. Type of data set: cell-based, hamster.
For the next data set, the target named is T1, CHOK1-α5KO-mαvβ1 cells (Mus musculus, UniProt P09055+P43406).
T1 construct: expressed in transfected cells; host or cells: CHOK1 with endogenous hamster α5 deleted by CRISPR
T1 sequence (P43406 31-1044): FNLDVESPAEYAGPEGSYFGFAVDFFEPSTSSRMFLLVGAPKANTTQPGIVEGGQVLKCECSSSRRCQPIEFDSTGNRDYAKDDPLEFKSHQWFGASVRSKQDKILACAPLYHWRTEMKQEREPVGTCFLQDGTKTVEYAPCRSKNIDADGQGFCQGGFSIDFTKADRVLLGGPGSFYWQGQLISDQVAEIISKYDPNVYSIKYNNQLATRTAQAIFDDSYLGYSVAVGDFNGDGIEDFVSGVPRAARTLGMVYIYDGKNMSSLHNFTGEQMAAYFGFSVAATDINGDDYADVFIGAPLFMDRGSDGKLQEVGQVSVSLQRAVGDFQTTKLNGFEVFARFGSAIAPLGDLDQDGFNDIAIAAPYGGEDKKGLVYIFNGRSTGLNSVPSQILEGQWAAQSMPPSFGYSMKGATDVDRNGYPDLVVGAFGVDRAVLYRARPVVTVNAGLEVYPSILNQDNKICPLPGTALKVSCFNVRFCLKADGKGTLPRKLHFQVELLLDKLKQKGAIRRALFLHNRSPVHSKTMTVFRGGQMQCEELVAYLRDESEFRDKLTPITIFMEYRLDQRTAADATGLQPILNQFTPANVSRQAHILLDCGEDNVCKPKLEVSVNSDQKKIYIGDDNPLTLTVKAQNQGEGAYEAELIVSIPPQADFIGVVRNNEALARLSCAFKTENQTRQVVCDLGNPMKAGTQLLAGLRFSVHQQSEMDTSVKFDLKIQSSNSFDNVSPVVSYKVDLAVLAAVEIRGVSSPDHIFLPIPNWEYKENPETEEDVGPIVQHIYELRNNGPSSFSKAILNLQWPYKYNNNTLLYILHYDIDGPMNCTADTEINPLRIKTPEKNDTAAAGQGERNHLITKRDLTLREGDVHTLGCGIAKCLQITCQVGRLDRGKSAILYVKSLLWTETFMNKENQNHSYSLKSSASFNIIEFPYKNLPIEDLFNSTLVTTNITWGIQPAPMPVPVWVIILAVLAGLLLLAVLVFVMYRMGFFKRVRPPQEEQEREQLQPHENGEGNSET
T1 sequence (P09055 21-798): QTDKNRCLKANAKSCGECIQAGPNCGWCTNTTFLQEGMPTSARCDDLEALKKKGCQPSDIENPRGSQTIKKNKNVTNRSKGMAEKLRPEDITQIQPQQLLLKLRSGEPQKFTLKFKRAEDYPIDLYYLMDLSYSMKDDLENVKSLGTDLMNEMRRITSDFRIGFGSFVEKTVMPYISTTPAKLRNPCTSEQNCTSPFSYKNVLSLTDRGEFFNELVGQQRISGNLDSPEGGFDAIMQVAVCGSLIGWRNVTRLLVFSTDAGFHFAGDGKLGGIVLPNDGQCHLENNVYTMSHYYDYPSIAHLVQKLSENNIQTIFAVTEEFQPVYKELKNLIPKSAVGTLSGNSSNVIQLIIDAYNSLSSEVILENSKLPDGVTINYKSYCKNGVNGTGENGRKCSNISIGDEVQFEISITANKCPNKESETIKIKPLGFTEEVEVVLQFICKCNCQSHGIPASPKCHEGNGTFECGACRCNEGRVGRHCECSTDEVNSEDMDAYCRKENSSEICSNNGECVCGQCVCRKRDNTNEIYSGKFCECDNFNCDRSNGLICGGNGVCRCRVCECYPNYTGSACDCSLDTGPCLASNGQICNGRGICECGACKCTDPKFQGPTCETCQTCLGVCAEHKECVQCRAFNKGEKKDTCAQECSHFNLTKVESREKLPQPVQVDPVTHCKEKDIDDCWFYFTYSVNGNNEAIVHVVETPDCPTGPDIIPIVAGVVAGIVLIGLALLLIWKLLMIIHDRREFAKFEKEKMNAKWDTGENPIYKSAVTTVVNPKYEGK
The data set can be described thus: Cell adhesion assay (Epic) on fibronectin. Type of data set: cell-based. The following applies: in words. As for the experimental part: For plate preparation, Epic 384-well assay plates (Corning #5040) were washed with OptiMEM (Gibco #31985-070) and coated with murine fibronectin (Abcam #ab92784) at a concentration of 0.1 μg/well for CHO-a5KO-mαvβ1 cells; murine vitronectin (Abcam #ab92727) at 0.075 μg/well for CHO-mαvβ3 cells; or murine vitronectin at 0.125 μg/well for CHO-mαvβ5 (all at a volume of 25 μl/well in OptiMEM), for 1 h. Coating solution was then removed by flicking and plates were washed with OptiMEM and blocked with 25 μl/well of assay buffer [1% Ovalbumin (Sigma #A5503-10G) in OptiMEM containing 1X Pen-Strep (Gibco #15140-148)]. A 5-min baseline reading was taken on a Corning Epic Plate Reader (Model: Epic BT-157900) before removing the assay buffer and adding cells pre-incubated with inhibitors. The Epic plate reader detects cellular mass redistribution (adhesion) on the plate surface as a picometer wavelength shift over time. […] Cells were incubated with the inhibitors for 1 h at RT with gentle rocking, after which 50 μL per well was transferred to the Epic assay plate, and a time course of cell adhesion was monitored for an additional 3 h.

Details of data set [2]: method as in PMID 15687321. The conditions noted are these: humans; cited from earlier work.
Setting [3] is: treatment from day 5 for 14 days, MK-0429 200 mpk osmotic minipump, vs BLM-vehicle.

Regarding `COc1ccc(C(CC(=O)O)N2CCN(CCCc3ccc4c(n3)NCCC4)C2=O)cn1` (centres unmarked) [MK-0429], in data set [1] (14 days treatment, MK-0429 200 mpk minipump), the “TIMP-1 content in BALF” value is listed as “did not reach statistical significance”. Moreover, in data set [1] (setting [3]), the “Modified Ashcroft score of mouse lung” value was “significantly decreased”, the “Total inflammation area in mouse lungs” value was “nonstatistical significant decrease” and the “αSMA immunohistochemistry in lung” value is on record as “significantly decreased”. Further, in data set [1] (MK-0429 200 mpk minipump), the “Body weight vs bleomycin group” value is recorded as “no significant body weight difference”. For the same compound, the “Effect on cell adhesion, CHOK1 parental cells” value in the data set with CHOK1 parental cells is given as “little inhibitory activity”. The “Effect on cell adhesion, mouse αvβ1-expressing CHOK1-α5KO cells” value on CHOK1-α5KO-mαvβ1 cells is given as “potently reduced”. Besides, the Oral bioavailability result in data set [2] was “good”.
